Laboratory results from patent US10953015B2, “Use of adenosine receptor signaling to regulate P-gp function” (CORNELL UNIVERSITY, priority 2016, dated 2021).

Tests used:
P-gp [1] = target: T1, P-gp (Homo sapiens, UniProt P08183); assay: Rho123 uptake assay in primary human brain endothelial cells (HBMVEC); assay type: cell-based; settings: agonist 1 μM, Rho123 2.5 μM
T1 construct: in human primary brain endothelial cells, HBMVEC, high P-gp expression was observed; host or cells: HBMVEC (primary human brain endothelial cells)
T1 sequence (P08183 whole entry): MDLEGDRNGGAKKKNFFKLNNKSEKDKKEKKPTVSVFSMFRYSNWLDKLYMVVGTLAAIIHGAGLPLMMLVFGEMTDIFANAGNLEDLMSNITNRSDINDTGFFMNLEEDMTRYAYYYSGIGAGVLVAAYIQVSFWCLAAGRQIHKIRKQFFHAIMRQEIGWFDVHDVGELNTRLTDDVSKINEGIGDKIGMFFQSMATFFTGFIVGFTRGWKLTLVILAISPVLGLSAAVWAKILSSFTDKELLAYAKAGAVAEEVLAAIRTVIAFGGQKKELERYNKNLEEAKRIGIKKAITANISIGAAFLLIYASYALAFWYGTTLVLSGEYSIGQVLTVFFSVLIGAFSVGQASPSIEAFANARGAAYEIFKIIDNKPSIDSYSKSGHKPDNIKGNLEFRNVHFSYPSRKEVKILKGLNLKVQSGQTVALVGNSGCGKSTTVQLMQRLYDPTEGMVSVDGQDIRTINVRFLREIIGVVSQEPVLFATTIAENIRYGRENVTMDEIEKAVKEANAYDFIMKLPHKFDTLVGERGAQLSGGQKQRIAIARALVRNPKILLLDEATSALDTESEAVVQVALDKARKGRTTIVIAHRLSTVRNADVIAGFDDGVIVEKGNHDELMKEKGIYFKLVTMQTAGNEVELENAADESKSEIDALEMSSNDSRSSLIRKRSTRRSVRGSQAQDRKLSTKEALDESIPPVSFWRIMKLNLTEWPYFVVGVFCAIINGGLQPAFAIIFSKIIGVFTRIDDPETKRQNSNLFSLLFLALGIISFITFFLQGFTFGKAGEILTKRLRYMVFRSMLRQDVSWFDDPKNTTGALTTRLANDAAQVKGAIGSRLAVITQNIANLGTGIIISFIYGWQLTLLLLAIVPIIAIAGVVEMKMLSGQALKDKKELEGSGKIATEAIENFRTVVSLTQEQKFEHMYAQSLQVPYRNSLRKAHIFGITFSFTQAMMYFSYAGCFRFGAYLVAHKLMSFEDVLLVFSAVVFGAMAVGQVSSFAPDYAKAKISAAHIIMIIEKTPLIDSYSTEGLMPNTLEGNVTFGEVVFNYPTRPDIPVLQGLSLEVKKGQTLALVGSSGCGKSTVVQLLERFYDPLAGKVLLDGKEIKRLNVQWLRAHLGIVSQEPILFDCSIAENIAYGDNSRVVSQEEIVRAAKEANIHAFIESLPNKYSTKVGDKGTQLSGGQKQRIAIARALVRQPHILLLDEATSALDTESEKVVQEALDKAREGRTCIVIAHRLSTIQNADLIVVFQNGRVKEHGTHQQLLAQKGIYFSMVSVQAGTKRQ
Protocol: Human brain endothelial cells and primary brain endothelial cells were plated onto 48-well plates until 100% confluence was reached, and media were replaced with fresh media containing Rho123 (2.5 μM) with different concentrations of Lexiscan®, NECA, or PSC833. Reaction was halted by adding 250 μl of ice-cold PBS. Plate was washed with 250 μl of ice-cold PBS 3 times and lysed with lysis buffer. Each sample was analyzed using Synergy Fluometer (Biotek), with excitation at 488 nm and emission at 523 nm. Concentration of Rho123 was analyzed using standard curve created by serial dilution of Rho123. Final concentration of Rho123 was normalized using protein concentration of lysate measured using Bradford assay (Bio-Rad). For microscopic analysis of Rho123 uptake, cells were cultured on coverslip and Rho123 was treated with or without Lexiscan® or NECA with DMSO as control. Reaction was terminated by adding ice-cold PBS and washed with ice-cold PBS 3 times. Cells were fixed with PFA and costained with anti-human P-gp. Cells were visualized with a Zeiss fluorescent microscope and captured with axiovision software. FIG. 4G is a schematic illustration of the Rho123 uptake assay.

P-gp and MMP9 = assay: Immunoprecipitation/IFA of P-gp with MMP9 in HBMVEC; assay type: cell-based, human; settings: 1 μM for 5 minutes
From the text: FIG. 8A is a schematic diagram of the experimental procedure for analysis of Lexiscan®'s effect on P-gp solubility and excretion in primary brain endothelial cells (“HBMVEC”). FIGS. 8B-8C are western blots and graphs summarizing the experimental result of each western blot. FIGS. 8B-8C show the analysis of P-gp expression of HBMVEC upon activation with Lexiscan® at different time points after lysis with RIPA buffer (FIG. 8B) or CSK buffer to measure P-gp levels in the cytoskeletal fraction (FIG. 8C). Band intensity was normalized to GAPDH and graphed. […] Band intensity was normalized using GAPDH and plotted. FIG. 8E is a western blot of secreted P-gp in HBMVEC upon activation with Lexiscan® in absence or presence of an MMP9 inhibitor: both short and long exposures of western blot from MMP9 inhibitor-treated samples are shown. Band intensity was plotted as a graph. FIG. 8F is a western blot showing the results of an Immunoprecipitation assay of MMP9 with lysate from HBMVEC treated with vehicle (control) or 1 μM of Lexiscan® for 5 minutes. P-gp was pulled down using anti-P-gp antibody and immunoblotted with an anti-MMP9 antibody. […] FIG. 8H is a graph summarizing the intensity of fluorescence of MMP9 from FIG. 8G. Fluorescent intensity of MMP9 was quantified and plotted as graph (n=20). **P<0.01 (2-tailed Student's t test, 1 representative result of 3 different experiments). […]

MMP9 = MMP9 in mouse brain endothelial cells after intravenous injection (IFA); assay type: in vivo; settings: 0.05 mg/kg i.v.; 5 minutes
Protocol: Vehicle control (DMSO) or 0.05 mg/kg of Lexiscan® was injected intravenously into mice. Five minutes later, mice were sacrificed and frozen sections of the brain were stained with anti-MMP9 (red) or anti-GLUT-1 (green) antibodies. Nucleus was counterstained with DAPI (blue). The scale bar indicates 50 μm.

P-gp [2] = assay: Epirubicin accumulation and P-gp staining in MCF7 cells (fluorescence microscopy); assay type: cell-based, human; settings: 1 μM
Protocol: MCF7 cells (human breast cancer cell line) were cultured in 24 well plates until they reached confluency. FIGS. 17A-17C are images of western blots of cells treated with vehicle control (i.e., DMSO) (“D”) or 1 μM of the broad spectrum AR agonist NECA (“N”) (FIG. 17A), 1 μM of the A2A AR agonist Lexiscan® (“L”) (FIG. 17B), or 1 μM of the A2B AR agonist BAY60 (“B”) (FIG. 17C), respectively for 24, 48, 72 hours. Cells were lysed with lysis buffer and expression levels of P-gp, MMP9, or VEGF analyzed by western blot. GAPDH was used as loading a control. FIG. 17D is a graph of experimental results showing that Lexiscan® down-regulates P-gp expression in MCF7 breast cancer cells. MCF7 breast cancer cells were treated with Lex (0.25 μM) concomitant with Rhodamine 123 (“Rho123”). […] Students T test, P<0.001. […] FIG. 17E is a fluorescence microscopy image showing MCF7 breast cancer cells grown on coverslips and treated with vehicle (DMSO, control), or A2 AR agonists, Lexiscan® (1 μM) or A1193 (1 μM) for 15 minutes in the presence of epirubicin. Cells were stained with an antibody to P-gp and mounted with DAPI. FIG. 17F is a graph of the fluorescent intensity quantified from FIG. 17E by measuring the mean fluorescent intensity (“MFI”) of epirubicin (pink) that is present in cell nuclei. ***=P<0.0001.
To further assess the modulation of A2A AR agonists on P-gp expression in MCF7 cells, applicants evaluated the accumulation of the P-gp substrate epirubicin in MCF7 cells. MCF7 cells were treated with DMSO (control), 1 μM Lexiscan®, or 1 μM of the A2A AR agonist A1193. […] In this case, the down-regulation of P-gp expression is equivalent to down-regulation of its function (Kim et al., “A2A Adenosine Receptor Modulates Drug Efflux Transporter P-Glycoprotein at the Blood-Brain Barrier,” J Clin Invest. 126(5):1717-33 (2016), which is hereby incorporated by reference in its entirety).

## CCNC(=O)[C@H]1O[C@@H](n2cnc3c(N)ncnc32)[C@H](O)[C@@H]1O [NECA, (2S,3S,4R,5R)-5-(6-aminopurin-9-yl)-N-ethyl-3,4-dihydroxyoxolane-2-carboxamide]
P-gp [1]
  Rho123 uptake / P-gp function: showed a trend in P-gp suppression, but it did not reach statistical significance

## CNC(=O)c1cnn(-c2nc(N)c3ncn([C@@H]4O[C@H](CO)[C@@H](O)[C@H]4O)c3n2)c1 [Lexiscan®, 1-[6-amino-9-[(2R,3R,4S,5R)-3,4-dihydroxy-5-(hydroxymethyl)oxolan-2-yl]purin-2-yl]-N-methylpyrazole-4-carboxamide]
P-gp and MMP9
  Interaction between P-gp and MMP9: induced rapid interaction between P-gp and MMP9
MMP9
  MMP9 in mouse brain endothelial cells: rapid increase of MMP9
P-gp [2]; 15 minutes
  P-gp expression (antibody staining): down-regulate P-gp expression
P-gp [2]; 15 minutes in the presence of epirubicin
  Epirubicin accumulation (MFI in cell nuclei): retained more epirubicin than those treated with control
